{"source": "patent US10681909B2", "about": "“Herbicidal triazoles” (FMC Corporation, priority 2014, dated 2020)", "key": {"barnyardgrass [1]": {"system": "barnyardgrass", "assay": "Test B flooded paddy test", "type": "in vivo, Echinochloa crus-galli", "details": "250 g ai/ha, applied to paddy water at 2-leaf stage, visual rating after 13 to 15 d, scale 0 (no effect) to 100 (complete control)", "procedure,_shortened": "(§1)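 Pots were flooded to 3 cm above the soil at treatment, and compounds were applied directly into the paddy water. That depth was held throughout. After 13 to 15 d in a greenhouse, plants were rated visually against untreated controls.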"}, "sedge, umbrella": {"system": "sedge, umbrella", "assay": "Test B flooded paddy test", "type": "in vivo, Cyperus difformis", "details": "250 g ai/ha, applied to paddy water at 2-leaf stage, visual rating after 13 to 15 d, scale 0 (no effect) to 100 (complete control)", "procedure,_shortened": "as §1"}, "ragweed": {"system": "ragweed", "assay": "Test C postemergence", "type": "in vivo, Ambrosia elatior", "description": "(§2) Seeds of plant species selected from blackgrass (Alopecurus myosuroides), ryegrass, Italian (Italian ryegrass, Lolium multiflorum), wheat (winter wheat, Triticum aestivum), galium (catchweed bedstraw, Galium aparine), corn (Zea mays), crabgrass, large (large crabgrass, Digitaria sanguinalis), foxtail, giant, (giant foxtail, Setaria faberii), johnsongrass (Sorghum halepense), lambsquarters (Chenopodium album), morningglory (Ipomoea coccinea), nutsedge, yellow (yellow nutsedge, Cyperus esculentus), pigweed (Amaranthus retroflexus), ragweed (common ragweed, Ambrosia elatior), soybean (Glycine max), barnyardgrass (Echinochloa crus-galli), oilseed rape (Brassica napus), waterhemp (common waterhemp, Amaranthus rudis), and velvetleaf (Abutilon theophrasti) were planted into a blend of loam soil and sand and treated preemergence with test chemicals formulated in a non-phytotoxic solvent mixture which included a surfactant. At the same time, plants selected from these crop and weed species and also chickweed (common chickweed, Stellaria media), oat, wild (wild oat, Avena fatua), and kochia (Kochia scoparia), were planted in pots containing Sunshine Redi-Earth® planting medium comprising spaghnum peat moss, vermiculite, starter nutrients and dolomitic limestone and treated with postemergence applications of test chemicals formulated in the same manner. Plants ranged in height from 2 to 18 cm (1- to 4-leaf stage) for postemergence treatments. […] A dash (-) response means no test result."}, "chickweed": {"system": "chickweed", "assay": "Test C postemergence", "type": "in vivo, Stellaria media", "description": "as §2"}, "johnsongrass": {"system": "johnsongrass", "assay": "Test C postemergence", "type": "in vivo, Sorghum halepense", "description": "as §2"}, "kochia": {"system": "kochia", "assay": "Test C postemergence", "type": "in vivo, Kochia scoparia", "description": "as §2"}, "oat, wild": {"system": "oat, wild", "assay": "Test C postemergence", "type": "in vivo, Avena fatua", "description": "as §2"}, "crabgrass, large": {"system": "crabgrass, large", "assay": "Test C preemergence", "type": "in vivo, Digitaria sanguinalis", "details": "for Plant response rating (scale of 0 to 100 where 0 is no effect and 100 is complete control): Crabgrass, Large, preemergence; for Crabgrass, Large plant response rating (0 to 100): Preemergence, visual rating after 13 to 15 d", "description": "as §2"}, "barnyardgrass [2]": {"system": "barnyardgrass", "assay": "Test C postemergence", "type": "in vivo, Echinochloa crus-galli", "description": "as §2"}, "foxtail, giant": {"system": "foxtail, giant", "assay": "Test C postemergence", "type": "in vivo, Setaria faberii", "description": "as §2"}, "blackgrass": {"system": "blackgrass", "assay": "Test C postemergence", "type": "in vivo, Alopecurus myosuroides", "description": "as §2"}, "morningglory": {"system": "morningglory", "assay": "Test C postemergence", "type": "in vivo, Ipomoea coccinea", "description": "as §2"}, "ducksalad": {"system": "ducksalad", "assay": "Test B flooded paddy test", "type": "in vivo, Heteranthera limosa", "details": "250 g ai/ha, applied to paddy water at 2-leaf stage, visual rating after 13 to 15 d, scale 0 (no effect) to 100 (complete control)", "procedure,_shortened": "as §1"}}, "data": [{"smiles": "FC(F)(F)COc1nc(-c2ccc(Cl)cc2)nn1Cc1ccnc(C(F)(F)F)c1", "note": "[Compound 31]", "values": [{"measurement": "Plant response rating, Barnyardgrass, Flood", "setting": "barnyardgrass [1]", "value": 40}, {"measurement": "Plant response rating, Sedge, Umbrella, Flood", "setting": "sedge, umbrella", "value": 100}, {"measurement": "Plant response rating (scale of 0 to 100 where 0 is no effect and 100 is complete control)", "setting": "ragweed; 31 g ai/ha", "value": 70}, {"measurement": "Plant response rating (scale of 0 to 100 where 0 is no effect and 100 is complete control)", "setting": "ragweed; 62 g ai/ha", "value": 75}, {"measurement": "Plant response rating (scale of 0 to 100 where 0 is no effect and 100 is complete control)", "setting": "ragweed; 125 g ai/ha", "value": 85}, {"measurement": "Plant response rating (scale of 0 to 100 where 0 is no effect and 100 is complete control)", "setting": "ragweed; 250 g ai/ha", "value": 100}, {"measurement": "Plant response rating (scale of 0 to 100 where 0 is no effect and 100 is complete control)", "setting": "chickweed; 31 g ai/ha", "value": 90}, {"measurement": "Plant response rating (scale of 0 to 100 where 0 is no effect and 100 is complete control)", "setting": "chickweed; 62 g ai/ha", "value": 95}, {"measurement": "Plant response rating (scale of 0 to 100 where 0 is no effect and 100 is complete control)", "setting": "chickweed; 125 g ai/ha", "value": 95}, {"measurement": "Plant response rating (scale of 0 to 100 where 0 is no effect and 100 is complete control)", "setting": "chickweed; 250 g ai/ha", "value": 95}, {"measurement": "Plant response rating (scale of 0 to 100 where 0 is no effect and 100 is complete control)", "setting": "johnsongrass; 31 g ai/ha", "value": 35}, {"measurement": "Plant response rating (scale of 0 to 100 where 0 is no effect and 100 is complete control)", "setting": "johnsongrass; 62 g ai/ha", "value": 25}, {"measurement": "Plant response rating (scale of 0 to 100 where 0 is no effect and 100 is complete control)", "setting": "johnsongrass; 125 g ai/ha", "value": 40}, {"measurement": "Plant response rating (scale of 0 to 100 where 0 is no effect and 100 is complete control)", "setting": "johnsongrass; 250 g ai/ha", "value": 70}, {"measurement": "Plant response rating (scale of 0 to 100 where 0 is no effect and 100 is complete control)", "setting": "kochia; 31 g ai/ha", "value": 90}, {"measurement": "Plant response rating (scale of 0 to 100 where 0 is no effect and 100 is complete control)", "setting": "kochia; 62 g ai/ha", "value": 90}, {"measurement": "Plant response rating (scale of 0 to 100 where 0 is no effect and 100 is complete control)", "setting": "kochia; 125 g ai/ha", "value": 90}, {"measurement": "Plant response rating (scale of 0 to 100 where 0 is no effect and 100 is complete control)", "setting": "kochia; 250 g ai/ha", "value": 90}, {"measurement": "Plant response rating (scale of 0 to 100 where 0 is no effect and 100 is complete control)", "setting": "oat, wild; 31 g ai/ha", "value": 30}, {"measurement": "Plant response rating (scale of 0 to 100 where 0 is no effect and 100 is complete control)", "setting": "oat, wild; 62 g ai/ha", "value": 35}, {"measurement": "Plant response rating (scale of 0 to 100 where 0 is no effect and 100 is complete control)", "setting": "oat, wild; 125 g ai/ha", "value": 80}, {"measurement": "Plant response rating (scale of 0 to 100 where 0 is no effect and 100 is complete control)", "setting": "oat, wild; 250 g ai/ha", "value": 80}, {"measurement": "Plant response rating (scale of 0 to 100 where 0 is no effect and 100 is complete control)", "setting": "crabgrass, large; 125 g ai/ha", "value": 100}, {"measurement": "Plant response rating (scale of 0 to 100 where 0 is no effect and 100 is complete control)", "setting": "crabgrass, large; 250 g ai/ha", "value": 100}, {"measurement": "Crabgrass, Large plant response rating (0 to 100)", "setting": "crabgrass, large; 31 g ai/ha", "value": 98}, {"measurement": "Crabgrass, Large plant response rating (0 to 100)", "setting": "crabgrass, large; 62 g ai/ha", "value": 98}, {"measurement": "Plant response rating (scale of 0 to 100 where 0 is no effect and 100 is complete control)", "setting": "barnyardgrass [2]; 31 g ai/ha", "value": 35}, {"measurement": "Plant response rating (scale of 0 to 100 where 0 is no effect and 100 is complete control)", "setting": "barnyardgrass [2]; 62 g ai/ha", "value": 35}, {"measurement": "Plant response rating (scale of 0 to 100 where 0 is no effect and 100 is complete control)", "setting": "barnyardgrass [2]; 125 g ai/ha", "value": 45}, {"measurement": "Plant response rating (scale of 0 to 100 where 0 is no effect and 100 is complete control)", "setting": "barnyardgrass [2]; 250 g ai/ha", "value": 75}, {"measurement": "Plant response rating (scale of 0 to 100 where 0 is no effect and 100 is complete control)", "setting": "foxtail, giant; 31 g ai/ha", "value": 15}, {"measurement": "Plant response rating (scale of 0 to 100 where 0 is no effect and 100 is complete control)", "setting": "foxtail, giant; 62 g ai/ha", "value": 35}, {"measurement": "Plant response rating (scale of 0 to 100 where 0 is no effect and 100 is complete control)", "setting": "foxtail, giant; 125 g ai/ha", "value": 40}, {"measurement": "Plant response rating (scale of 0 to 100 where 0 is no effect and 100 is complete control)", "setting": "foxtail, giant; 250 g ai/ha", "value": 40}, {"measurement": "Plant response rating (scale of 0 to 100 where 0 is no effect and 100 is complete control)", "setting": "blackgrass; 31 g ai/ha", "value": 35}, {"measurement": "Plant response rating (scale of 0 to 100 where 0 is no effect and 100 is complete control)", "setting": "blackgrass; 62 g ai/ha", "value": 50}, {"measurement": "Plant response rating (scale of 0 to 100 where 0 is no effect and 100 is complete control)", "setting": "blackgrass; 125 g ai/ha", "value": 60}, {"measurement": "Plant response rating (scale of 0 to 100 where 0 is no effect and 100 is complete control)", "setting": "blackgrass; 250 g ai/ha", "value": 80}, {"measurement": "Plant response rating (scale of 0 to 100 where 0 is no effect and 100 is complete control)", "setting": "morningglory; 31 g ai/ha", "value": 95}, {"measurement": "Plant response rating (scale of 0 to 100 where 0 is no effect and 100 is complete control)", "setting": "morningglory; 62 g ai/ha", "value": 60}, {"measurement": "Plant response rating (scale of 0 to 100 where 0 is no effect and 100 is complete control)", "setting": "morningglory; 125 g ai/ha", "value": 75}, {"measurement": "Plant response rating (scale of 0 to 100 where 0 is no effect and 100 is complete control)", "setting": "morningglory; 250 g ai/ha", "value": 100}, {"measurement": "Plant response rating, Ducksalad, Flood", "setting": "ducksalad", "value": 70}]}]}
